Measured values published in patent US20070129307A1, “Insulin epitopes for the treatment of type 1 diabetes” (The University of British Columbia, priority 2001, published 2007).
“Also recorded” adds a separate entry of the source. Values belong to the substance of their own block, whether it stands above or below them.

Assays:
HLA-A*0201 [1] = target: T1, HLA-A*0201 (Homo sapiens, UniProt P04439, D140Y/D185E/D98H/E176V/E277Q/G131W/G231S/I119V/I121R/I166T/I218V/L300P/L318F/N151K/N90K/P208A/P217A/Q86G/Q94H/R138H/R169H/T345S); test: Temporal stability (dissociation) of peptide/HLA-A*0201 complexes on T2 cells; format: binding; conditions: in 4 hours at 37° C., T2 cells with emetine, normalized to CMV/HLA-A2
T1 construct: cell membrane stabilization of the HLA-A2 molecule in TAP-deficient 174×CEM.T2 cells; endogenous in cells; host or cells: 174×CEM.T2 (T2) cells, TAP-deficient
Protocol: The stability of complexes formed with the peptides and HLA-A2 on T2 cells was assessed, over a 4-hour period at 37° C. After peptide removal and addition of emetine to inhibit protein synthesis, T2 cells were cultured at 37° C. and the HLA-A2 expression was determined at different incubation times using anti-HLA-A2 antibody. The stability of the various peptide/HLA-A2 complexes were then normalized relative to that observed for CMV/HLA-A2 complexes set as 100%.
The temporal stability of peptide/HLA-A*0201 complexes was assessed as previously described (Valmori, supra). Briefly, T2 cells were cultured with synthetic peptides overnight at room temperature as performed for peptide binding assay. The following day, after removing peptide and adding emetine (10^−4 M; Sigma-Aldrich, Oakville, Ontario, Canada) to block protein synthesis, cells were incubated at 37° C. for the indicated time periods. At each time point, an aliquot of cells was washed and stained with FITC-conjugated anti-HLA-A2 monoclonal antibody (BB7.2). Surface HLA-A2 expression was assessed by flow cytometry (FACSCalibur) and MFI was recorded. The CMV peptide was used as a positive control. Results are expressed as relative complex stability =100×[(MFI with given peptide—MFI without peptide)/(MFI with CMV peptide—MFI without peptide)].

[2] = tested on: HLA-A2 restricted CD8+ T cells (PBMC); conditions: for T cell responses in diabetic patients and controls: non-diabetic and non-HLA matched controls
H-2Kd = target: T2, H-2Kd (Mus musculus, UniProt P01902); test: MHC class I stabilization assay on RMAS-Kd cells (FACS); format: binding; conditions: background without peptide 6.07%
T2 construct: expressed in transfected cells; host or cells: RMAS (TAP-deficient murine cell line) transfected with H-2Kd
T2 sequence (P01902 22-368): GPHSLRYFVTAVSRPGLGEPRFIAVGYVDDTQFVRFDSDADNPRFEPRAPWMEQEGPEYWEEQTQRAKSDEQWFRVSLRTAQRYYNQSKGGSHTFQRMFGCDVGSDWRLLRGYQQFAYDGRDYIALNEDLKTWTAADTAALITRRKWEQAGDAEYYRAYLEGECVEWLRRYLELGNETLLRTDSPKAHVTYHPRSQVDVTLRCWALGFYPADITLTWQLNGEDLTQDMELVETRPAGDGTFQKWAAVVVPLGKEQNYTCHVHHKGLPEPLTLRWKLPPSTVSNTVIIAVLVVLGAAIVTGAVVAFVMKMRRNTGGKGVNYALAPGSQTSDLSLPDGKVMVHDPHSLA
T2 sequence (P01887 21-119 partner): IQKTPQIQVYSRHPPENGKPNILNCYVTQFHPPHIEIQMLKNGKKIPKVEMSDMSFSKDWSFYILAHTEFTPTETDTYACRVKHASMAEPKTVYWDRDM
Protocol: A peptide (for example, TUM, V7, INSL, TV1, TV2, or TV3) is added and the cells are incubated at room temperature for 1 hour, and then incubated at 37° C. for 3 hours. The cells are washed 3 times with 0.3% bovine serum albumin-phosphate buffer solution (BSA-PBS), and then stained with fluorescently labelled anti-mouse H-2Kd-FITC antibody. Fluorescent-activated cell sorting (FACS) analysis is performed to count the percentage of cells showing positive staining.
FACS analysis was performed to quantify the percentage/proportion of antigen presenting cells (RMAS-Kd) that express stable MHC class I on their cell surface, in association with the TV1 peptide. RMAS-Kd is a transporter for antigen presentation (TAP)-deficient RMAS cell line transfected with the mouse MHC class I molecule, H-2Kd. Because the cell line is TAP deficient it cannot assemble MHC class I (in this case H-2Kd) complexes stably but requires surface stabilisation by exogenous peptides that can bind with the H-2Kd heavy chain and beta-2 microglobulin. The cell line was stained for MHC class I expression with or without TV1 peptide.

[3] = tested on: murine autoreactive T cells (NOD spleen cells); test: Interferon-gamma ELISPOT with NOD spleen cells; format: cell-based, mouse
Excerpt: The effector cells (CTL) of the ELISPOT assay are contained within spleen cells from NOD mice aged 10 weeks. The spleens from these mice contain a proportion of autoreactive CTL destined to destroy pancreatic beta cells.
The peptide NRP-V7 was used as a positive control and is a previously described synthetic autoepitope (automimotope) of NOD mice (Amrani et al., 2000). NRP-V7 was not derived from any endogenous mammalian protein sequence but was identified by screening combinatorial peptide libraries. The peptide TUM was used as a negative control. TUM is derived from an endogenous tumour peptide not known to participate in type 1 diabetes but known to bind to the MHC class I molecule, H-2Kd.

NOD mice = test: Peptide immunisation of NOD mice, diabetes onset; format: in vivo, mouse; conditions: by week 18; 100 μg peptide intraperitoneally from 3 weeks of age; diabetic = two consecutive blood sugars >15 mM
Protocol: Peptides are administered to female NOD mice in accordance with standard laboratory methods.
Three groups of NOD mice (n=10 per group, purchased from Taconic, Germantown, N.Y., U.S.A.) were immunised beginning at three weeks of age with 100 μg of TUM, NRP-A7, or TV1 (MTV-1) peptide in PBS solution, intraperitoneally once per week for two weeks, then once every two weeks. Mice were monitored for hyperglycaemia weekly and considered to be diabetic after two consecutive blood sugars >15 mM.

[4] = tested on: human autoreactive T cells (PBMC); test: Interferon gamma ELISPOT of PBMC from type 1 diabetes patients (Example 5); format: cell-based; conditions: 1 μM peptide, PBMC 20,000 per well, recent onset type 1 diabetes patients, FIG. 8
HLA-A*0201 [5] = target: T1, HLA-A*0201; test: FACS assay of peptide binding to HLA-A2 on T2 cells (Example 6)
[6] = tested on: autoreactive T cells in NOD pancreatic islets; test: Interferon-gamma ELISPOT with T cells of NOD pancreatic islets; format: cell-based, mouse; conditions: FIG. 5
[7] = tested on: CTL from pancreatic islets of NOD mice; test: H-2Kd tetramer staining of NOD islet cells; format: cell-based, mouse; conditions: H-2Kd tetramers, islet cells ex vivo or after in vitro culture, FIG. 12
Excerpt: MHC class I tetramers (for example, H-2Kd tetrameric complexes) are synthesised as previously described by Altman et al. (Science 274:94-96, 1996). MHC heavy chain, modified by the addition of a C-terminal biotinylation site, and beta 2 microglobulin are expressed separately in E. coli (BL21, Stratagene, La Jolla, Calif., U.S.A.). Peptides were synthesized synthesised on a Perkin-Elmer-ABI 431A by the NAPS Unit, University of British Columbia, BC, Canada. Purified heavy chain, beta 2 microglobulin and peptide are refolded at 4° C. for 48 hours in a TRIS-based buffer, and the refolded product is concentrated, biotinylated using BirA enzyme (Avidity, Denver, Colo., U.S.A.) in the presence of biotin, ATP and Mg++ and purified by FPLC. Streptavidin-phycoerythrin conjugate is added in a 1:4 molar ratio and the tetrameric product is concentrated to approximately 1 mg/ml. The tetramer concentration is calculated based upon the concentration of biotinylated protein, quantified by Bradford assay, prior to addition of streptavidin.
Single cell suspensions of lymphocytes are incubated with 1 μl of a 1 mg/ml solution of MHC tetramer for 2-3 hours at 4° C. in FACS staining buffer (HBSS/FBS 2%/Sodium Azide 0.01%/EDTA 100 mM). The cells are centrifuged and washed three times before staining with antibody to CD8. […]

- dissociation of peptide/HLA-A2 complexes (HLA-A*0201 [1]): about 20%
Substance: ALWMRLLPL [Insulin2]
- non-diabetic control subjects that responded ([2]; second study): three of the five

Substance: DLMGYIPLV [HCV, reference compound]
- subjects responding to the peptide ([2]; first study, all subjects): None of the subjects responded

- dissociation of peptide/HLA-A2 complexes (HLA-A*0201 [1]): about 20%
Substance: GMAELMAGL [Phogrin331]
- T cell responses in diabetic patients and controls ([2]; second study): could not be detected

- proportion of H-2Kd on the surface of the APC in the presence of peptide (H-2Kd): 64%
Substance: KLPAVLLIL (mTV-1 peptide epitope) [TV1]
- recognition by murine autoreactive T cells (interferon-gamma secretion) ([3]; FIG. 1): recognise
- recognition by murine autoreactive T cells (interferon-gamma secretion) ([3]; FIG. 1, listed as TV-1): high frequency of CTL that recognise TV-1
- immunized mice considered diabetic (NOD mice): 80%

- binding to HLA-A2 (HLA-A*0201 [5]; FIG. 11, listed as HTV 1): bind to HLA-A2
- binding to HLA-A2 (HLA-A*0201 [5]; FIG. 11, listed as HTV1): binds
Substance: KLQVFLIVL (HTV-1 peptide epitope) [IAPP5]
- recognition by human autoreactive T cells (interferon-gamma ELISPOT) [4]: elevated HTV1 autoreactivity; also recorded: recognise

Substance: KYNKANVFL [NRP-V7, positive control]
- proportion of H-2Kd on the surface of the APC in the presence of peptide (H-2Kd): 72%
- proportion of H-2Kd on the surface of the APC in the presence of peptide (H-2Kd; listed as V7): 72.71%
- recognition by murine autoreactive T cells (interferon-gamma secretion) ([3]; FIG. 1): Interferon-gamma is also secreted; also recorded: recognise
- interferon-gamma secretion by autoreactive T cells in NOD pancreatic islets [6]: secrete interferon-gamma

- proportion of H-2Kd on the surface of the APC in the presence of peptide (H-2Kd): 58%
Substance: KYPAVLLIL (modified version of precursor peptide TV1 (TV2))
- recognition by CD8+ T cells (tetramer staining) [7]: recognize

Substance: LLPPLLEHL [IA-2(180)]
- T cell responses in diabetic patients and controls ([2]; second study): could not be detected

- proportion of H-2Kd on the surface of the APC in the presence of peptide (H-2Kd): 73.68%
- proportion of H-2Kd on the surface of the APC in the presence of peptide (H-2Kd; listed as INS-L): 73%
Substance: LYLVCGERG [INSL]
- interferon-gamma secretion by autoreactive T cells in NOD pancreatic islets [6]: minimally

Substance: NRP-A7: positive control peptide; known synthetic peptide autoantigen recognized in the context of H-2Kd (KYNKANAFL; NRP-A7 peptide)
- immunized mice considered diabetic (NOD mice): 20%

- dissociation of peptide/HLA-A2 complexes (HLA-A*0201 [1]): about 20%
Substance: RLLCALTSL [IGRP293]
- T cell responses in diabetic patients and controls ([2]; second study): could not be detected

- proportion of H-2Kd on the surface of the APC in the presence of peptide (H-2Kd): 70%
Substance: RLLPLLALL (mouse insulin derived peptide) [TV3]

- proportion of H-2Kd on the surface of the APC in the presence of peptide (H-2Kd): 66%
Substance: TUM: negative control; derived from an endogenous tumour peptide, known to bind H-2Kd (KYQAVTTTL)
- immunized mice considered diabetic (NOD mice): none
